Laboratory results from BindingDB's records for doi:10.1016/S1074-5521(00)00104-6 (Axys Pharmaceutical, 2000).

Legend:
Experiment in all cases: Enzyme Assay and Determination of the Inhibition Constants
Details in all cases: pH 7.4; 22 °C
Coagulation factor X = Coagulation factor X (Homo sapiens, UniProt P00742)
Method: (§1) Each enzyme was assayed with a set of different concentrations of each inhibitor. […] Ki(apparent) values were calculated from enzyme velocity curves using the software package BatchKi (BioKin Ltd, Madison, WI). These apparent inhibition constants were then converted to Ki values by assuming competitive inhibition and using the formula Ki = Ki(apparent)/(1 + S/Km).

[1] = target: Tissue-type plasminogen activator (Homo sapiens, UniProt P00750)
Method: as §1

Tryptase beta-2 = Tryptase beta-2 (Homo sapiens, UniProt P20231)
Method: as §1

Prothrombin = Prothrombin (Homo sapiens, UniProt P00734)
Method: as §1

[2] = target: Urokinase-type plasminogen activator (Homo sapiens, UniProt P00749)
Method: as §1

Coagulation factor X, sequence (P00742 41-179 limits assumed): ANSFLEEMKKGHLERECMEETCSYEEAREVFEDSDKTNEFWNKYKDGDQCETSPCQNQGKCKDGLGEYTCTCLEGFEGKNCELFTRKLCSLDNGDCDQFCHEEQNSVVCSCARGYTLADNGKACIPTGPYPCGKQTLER
Coagulation factor X, sequence (P00742 235-488 limits assumed): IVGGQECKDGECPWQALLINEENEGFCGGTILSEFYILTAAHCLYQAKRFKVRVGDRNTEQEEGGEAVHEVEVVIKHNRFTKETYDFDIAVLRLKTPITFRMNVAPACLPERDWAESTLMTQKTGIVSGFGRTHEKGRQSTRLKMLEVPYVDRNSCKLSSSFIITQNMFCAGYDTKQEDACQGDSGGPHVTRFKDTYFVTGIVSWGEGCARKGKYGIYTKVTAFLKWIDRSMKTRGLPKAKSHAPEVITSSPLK
Tryptase beta-2, sequence (P20231 as listed by the source): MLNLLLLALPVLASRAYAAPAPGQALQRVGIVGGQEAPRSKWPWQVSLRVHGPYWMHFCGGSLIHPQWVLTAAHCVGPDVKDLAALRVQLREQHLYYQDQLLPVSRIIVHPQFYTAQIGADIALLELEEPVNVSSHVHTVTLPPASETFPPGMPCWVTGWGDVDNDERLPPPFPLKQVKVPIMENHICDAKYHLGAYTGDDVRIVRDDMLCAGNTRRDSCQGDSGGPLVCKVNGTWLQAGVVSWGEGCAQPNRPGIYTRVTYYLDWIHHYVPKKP
Tissue-type plasminogen activator, sequence (P00750 whole entry): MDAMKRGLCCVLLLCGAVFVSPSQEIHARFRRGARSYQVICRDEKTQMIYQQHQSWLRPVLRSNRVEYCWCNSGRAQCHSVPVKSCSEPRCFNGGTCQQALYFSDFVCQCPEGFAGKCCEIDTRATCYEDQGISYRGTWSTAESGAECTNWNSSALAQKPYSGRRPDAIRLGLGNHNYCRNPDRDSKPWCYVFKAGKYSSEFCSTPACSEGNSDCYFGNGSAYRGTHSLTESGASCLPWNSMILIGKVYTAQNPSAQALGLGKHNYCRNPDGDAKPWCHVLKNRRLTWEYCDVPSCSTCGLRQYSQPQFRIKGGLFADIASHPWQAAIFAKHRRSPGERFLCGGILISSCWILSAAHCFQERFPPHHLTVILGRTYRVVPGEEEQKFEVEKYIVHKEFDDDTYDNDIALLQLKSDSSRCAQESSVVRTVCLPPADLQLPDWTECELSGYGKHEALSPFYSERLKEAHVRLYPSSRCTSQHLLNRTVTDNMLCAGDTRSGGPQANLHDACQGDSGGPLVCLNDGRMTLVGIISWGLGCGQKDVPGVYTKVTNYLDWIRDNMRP

Ki (Coagulation factor X) [µM] | Ki [1] [µM] | Ki (Tryptase beta-2) [µM] | Ki (Prothrombin) [µM] | Ki [2] [µM] | SMILES
110 | – | – | – | – | N=C(N)c1ccccc1 [Benzamidine]
21 | 15 | 9.9 | 58 | 2.3 | N=C(N)c1cc2ccccc2s1 [Benzo[b]thiophene-2-carboxamidine]
30 | 16.8 | 1.5 | – | – | N=C(N)c1cc2c(I)cccc2s1 [CA-01]
360 | 1800 | 34 | 1600 | – | N=C(N)c1cc2cccnc2s1 [[amino(thieno[2,3-b]pyridin-2-yl)methylidene]azanium]
